Holding throughout (assay type): functional
For assay [1], the system named is Neisseria meningitidis. Description: Antimicrobial activity against Neisseria meningitidis assessed as susceptible isolate by broth microdilution method. For orientation: Broth dilution looks for growth in wells or tubes with falling amounts of substance.
The test system of assay [2] is Neisseria meningitidis. Description: Antimicrobial activity against Neisseria meningitidis by broth microdilution method.
Assay [3] has as its system Neisseria meningitidis. Description: Antimicrobial activity against Neisseria meningitidis assessed as resistant isolate by broth microdilution method.

In brackets after ≈: the same amount, converted by molar mass. Bounds are passed on as bounds.

Data on eleven compounds can be found in ChEMBL document CHEMBL1649331, “Determination of CEM-101 activity tested against clinical isolates of Neisseria meningitidis from a worldwide collection” (2010).

What is called MIC is the lowest concentration that inhibits growth of the organism. Broadly, the MIC50 is an inhibitory concentration at the 50% level, which refers to growth in some studies and to a panel of isolates in others. Higher therefore signals lower susceptibility. The term MIC90 denotes an inhibitory concentration at the 90% level, which refers to growth in some studies and to a panel of isolates in others. A lower MIC90 goes with greater potency.

For `CC[C@H]1OC(=O)[C@H](C)[C@@H](O[C@H]2C[C@@](C)(OC)[C@@H](O)[C@H](C)O2)[C@H](C)[C@@H](O[C@@H]2O[C@H](C)C[C@H](N(C)C)[C@H]2O)[C@](C)(O)C[C@@H](C)CN(C)[C@H](C)[C@@H](O)[C@]1(C)O` [AZITHROMYCIN], the Activity in the assay with Neisseria meningitidis [1] is given as 100%. Further, in the assay on Neisseria meningitidis [2], the minimal inhibitory concentration (MIC) is not above 0.015 µg/mL, the MIC50 came to 0.06 µg/mL (≈ 0.0801 µM) and the MIC90 worked out at 0.12 µg/mL (≈ 0.16 µM).
On to `CO/N=C(\C(=O)N[C@@H]1C(=O)N2C(C(=O)O)=C(CSc3nc(=O)c(O)nn3C)CS[C@H]12)c1csc(N)n1` [CEFTRIAXONE], for which the Activity in the assay with Neisseria meningitidis [1] is given as 100%. For the same compound, in the assay on Neisseria meningitidis [2], the MIC50 is not above 0.015 µg/mL and the MIC90 is not above 0.015 µg/mL.
For the compound `O=C(O)c1cn(C2CC2)c2cc(N3CCNCC3)c(F)cc2c1=O` [CIPROFLOXACIN], the Activity in the assay on Neisseria meningitidis [1] is 97.1%; in the assay with Neisseria meningitidis [3] it was 1.9%.
In the assay with Neisseria meningitidis [2], `CC[C@H]1OC(=O)[C@H](C)[C@@H](O[C@H]2C[C@@](C)(OC)[C@@H](O)[C@H](C)O2)[C@H](C)[C@@H](O[C@@H]2O[C@H](C)C[C@H](N(C)C)[C@H]2O)[C@](C)(OC)C[C@@H](C)C(=O)[C@H](C)[C@@H](O)[C@]1(C)O` [CLARITHROMYCIN] returned an MIC not above 0.015 µg/mL, an MIC50 of 0.03 µg/mL (≈ 0.0401 µM) and an MIC90 of 0.12 µg/mL (≈ 0.16 µM).
In the assay with Neisseria meningitidis [2], `CC[C@H]1OC(=O)[C@H](C)[C@@H](O[C@H]2C[C@@](C)(OC)[C@@H](O)[C@H](C)O2)[C@H](C)[C@@H](O[C@@H]2O[C@H](C)C[C@H](N(C)C)[C@H]2O)[C@](C)(O)C[C@@H](C)C(=O)[C@H](C)[C@@H](O)[C@]1(C)O` [ERYTHROMYCIN] yielded an MIC not above 0.03 µg/mL, an MIC50 of 0.12 µg/mL (≈ 0.164 µM) and an MIC90 of 0.25 µg/mL (≈ 0.341 µM).
With `C[C@H]1COc2c(N3CCN(C)CC3)c(F)cc3c(=O)c(C(=O)O)cn1c23.C[C@H]1COc2c(N3CCN(C)CC3)c(F)cc3c(=O)c(C(=O)O)cn1c23.O` [LEVOFLOXACIN], the Activity in the assay with Neisseria meningitidis [1] is on record as 97.1%. Also, the Activity in the assay with Neisseria meningitidis [3] worked out at 1.9%. In the assay on Neisseria meningitidis [2], this compound yielded an MIC not above 0.008 µg/mL, an MIC50 not above 0.008 µg/mL and an MIC90 not above 0.008 µg/mL.
As to `CN(C)c1ccc(O)c2c1C[C@H]1C[C@H]3[C@H](N(C)C)C(O)=C(C(N)=O)C(=O)[C@@]3(O)C(O)=C1C2=O` [MINOCYCLINE], in the assay with Neisseria meningitidis [1], the Activity is recorded as 100%. Further, in the assay with Neisseria meningitidis [3], the Activity is given as 0%. Besides, in the assay with Neisseria meningitidis [2], the MIC was not above 0.015 µg/mL, the MIC50 was found to be 0.12 µg/mL (≈ 0.262 µM) and the MIC90 stood at 0.25 µg/mL (≈ 0.546 µM).
For `CC1(C)S[C@@H]2[C@H](NC(=O)Cc3ccccc3)C(=O)N2[C@H]1C(=O)O` [PENICILLIN G] the same measures were 84.5%, 0%, not above 0.015 µg/mL, 0.03 µg/mL (≈ 0.0897 µM) and 0.12 µg/mL (≈ 0.359 µM).
Consider `CO[C@H]1/C=C/O[C@@]2(C)Oc3c(C)c(O)c4c(O)c(c(/C=N/N5CCN(C)CC5)c(O)c4c3C2=O)NC(=O)/C(C)=C\C=C\[C@H](C)[C@H](O)[C@@H](C)[C@@H](O)[C@@H](C)[C@H](OC(C)=O)[C@@H]1C` [RIFAMPIN], for which, in the assay on Neisseria meningitidis [1], the Activity turned out to be 100%. The Activity in the assay on Neisseria meningitidis [3] worked out at 0%. Besides, in the assay with Neisseria meningitidis [2], the MIC50 was found to be 0.015 µg/mL (≈ 0.0182 µM) and the MIC90 was determined as 0.03 µg/mL (≈ 0.0365 µM).
In the assay on Neisseria meningitidis [2], `CC[C@H]1OC(=O)[C@@](C)(F)C(=O)[C@H](C)[C@@H](O[C@@H]2O[C@H](C)C[C@H](N(C)C)[C@H]2O)[C@](C)(OC)C[C@@H](C)C(=O)[C@H](C)[C@H]2N(CCCCn3cc(-c4cccc(N)c4)nn3)C(=O)O[C@]12C` [SOLITHROMYCIN] yielded a minimal inhibitory concentration (MIC) not above 0.015 µg/mL, an MIC50 not above 0.015 µg/mL and an MIC90 not above 0.015 µg/mL.
In the assay with Neisseria meningitidis [2], `CC[C@H]1OC(=O)[C@H](C)C(=O)[C@H](C)[C@@H](O[C@@H]2O[C@H](C)C[C@H](N(C)C)[C@H]2O)[C@](C)(OC)C[C@@H](C)C(=O)[C@H](C)[C@H]2N(CCCCn3cnc(-c4cccnc4)c3)C(=O)O[C@]12C` [TELITHROMYCIN] yielded an MIC not above 0.015 µg/mL, an MIC50 not above 0.015 µg/mL and an MIC90 of 0.03 µg/mL (≈ 0.0369 µM).
